According to patent US20240109903A1, “SUBSTITUTED HETEROCYCLES FOR TREATING CANCER” (Northwestern University, priority 2022, published 2024):

Legend:
Assay type in all cases: cell-based
SF-539 = assay: NCI 60 five-dose screen SF-539; settings: Homo sapiens; for CC50: read-out: LC50 (the source's name) (converted)
HS 578T = assay: NCI 60 five-dose screen HS 578T; settings: Homo sapiens; for CC50: read-out: LC50 (the source's name)
SNB-19 = assay: NCI 60 five-dose screen SNB-19; settings: Homo sapiens; for CC50: read-out: LC50 (the source's name) (converted)
T-47D = assay: NCI 60 five-dose screen T-47D; settings: Homo sapiens, T47D; for CC50: read-out: LC50 (the source's name)
U251 = assay: NCI 60 five-dose screen U251; settings: Homo sapiens; for GI50 / IC50 / IC (TGI): U-251; for CC50: U-251, read-out: LC50 (the source's name) (converted)
786-0 = assay: NCI 60 five-dose screen 786-0; settings: Homo sapiens; for CC50: read-out: LC50 (the source's name) (converted)
ACHN = assay: NCI 60 five-dose screen ACHN; settings: Homo sapiens; for CC50: read-out: LC50 (the source's name) (converted)
M14 = assay: NCI 60 five-dose screen M14; settings: Homo sapiens; for CC50: read-out: LC50 (the source's name) (converted)
MALME-3M = assay: NCI 60 five-dose screen MALME-3M; settings: Homo sapiens, Malme-3M; for CC50: read-out: LC50 (the source's name) (converted)
OVCAR-3 = assay: NCI 60 five-dose screen OVCAR-3; settings: Homo sapiens; for CC50: read-out: LC50 (the source's name) (converted)
A549/ATCC = assay: NCI 60 five-dose screen A549/ATCC; settings: Homo sapiens; for CC50: read-out: LC50 (the source's name) (converted)
HL-60(TB) = assay: NCI 60 five-dose screen HL-60(TB); settings: Homo sapiens; for CC50: read-out: LC50 (the source's name) (converted)
TK-10 = assay: NCI 60 five-dose screen TK-10; settings: Homo sapiens; for CC50: read-out: LC50 (the source's name) (converted)
SK-MEL-28 = assay: NCI 60 five-dose screen SK-MEL-28; settings: Homo sapiens; for CC50: read-out: LC50 (the source's name) (converted)
PC-3 = assay: NCI 60 five-dose screen PC-3; settings: Homo sapiens; for CC50: read-out: LC50 (the source's name) (converted)
MOLT-4 = assay: NCI 60 five-dose screen MOLT-4; settings: Homo sapiens; for CC50: read-out: LC50 (the source's name)
IGROV1 = assay: NCI 60 five-dose screen IGROV1; settings: Homo sapiens; for GI50 / IC50 / IC (TGI): IGROV-1; for CC50: IGROV-1, read-out: LC50 (the source's name) (converted)
RXF 393 = assay: NCI 60 five-dose screen RXF 393; settings: Homo sapiens; for CC50: read-out: LC50 (the source's name) (converted)
RPMI-8226 = assay: NCI 60 five-dose screen RPMI-8226; settings: Homo sapiens; for CC50: read-out: LC50 (the source's name)
MCF7 = assay: NCI 60 five-dose screen MCF7; settings: Homo sapiens; for CC50: read-out: LC50 (the source's name) (converted)
MDA-MB-435 = assay: NCI 60 five-dose screen MDA-MB-435; settings: Homo sapiens; for CC50: read-out: LC50 (the source's name) (converted)
NCI-H460 = assay: NCI 60 five-dose screen NCI-H460; settings: Homo sapiens; for CC50: read-out: LC50 (the source's name) (converted)
NCI-H522 = assay: NCI 60 five-dose screen NCI-H522; settings: Homo sapiens; for CC50: read-out: LC50 (the source's name) (converted)
SW-620 = assay: NCI 60 five-dose screen SW-620; settings: Homo sapiens; for CC50: read-out: LC50 (the source's name) (converted)

Fc1ccc(N2CC(Cn3c(C(F)(F)F)cc4c(Cl)ncnc43)C2)c(F)c1 [NUCC-0226695]
GI50 (SF-539): 13.8 µM
IC50 (SF-539): 24.5 µM
IC (TGI) (SF-539): 28.2 µM
CC50 (SF-539): 58.9 µM
GI50 (HS 578T): 7.08 µM
IC50 (HS 578T): 77.6 µM
IC (TGI) (HS 578T): 41.7 µM
CC50 (HS 578T): ≥ 100 µM
GI50 (SNB-19): 15.1 µM
IC50 (SNB-19): 27.5 µM
IC (TGI) (SNB-19): 28.8 µM
CC50 (SNB-19): 55 µM
GI50 (T-47D): 13.8 µM
IC50 (T-47D): 43.7 µM
IC (TGI) (T-47D): 67.6 µM
CC50 (T-47D): ≥ 100 µM
GI50 (U251): 1.91 µM
IC50 (U251): 3.24 µM
IC (TGI) (U251): 3.8 µM
CC50 (U251): 7.76 µM
GI50 (786-0): 14.8 µM
IC50 (786-0): 26.3 µM
IC (TGI) (786-0): 28.8 µM
CC50 (786-0): 57.5 µM
GI50 (ACHN): 12.9 µM
IC50 (ACHN): 21.9 µM
IC (TGI) (ACHN): 27.5 µM
CC50 (ACHN): 58.9 µM
GI50 (M14): 2.95 µM
IC50 (M14): 4.37 µM
IC (TGI) (M14): 10.7 µM
CC50 (M14): 45.7 µM
GI50 (MALME-3M): 12.6 µM
IC50 (MALME-3M): 25.7 µM
IC (TGI) (MALME-3M): 25.1 µM
CC50 (MALME-3M): 50.1 µM
GI50 (OVCAR-3): 2.57 µM
IC50 (OVCAR-3): 4.9 µM
IC (TGI) (OVCAR-3): 6.46 µM
CC50 (OVCAR-3): 22.9 µM
GI50 (A549/ATCC): 17.4 µM
IC50 (A549/ATCC): 29.5 µM
IC (TGI) (A549/ATCC): 35.5 µM
CC50 (A549/ATCC): 74.1 µM
GI50 (HL-60(TB)): 2240 nM
IC50 (HL-60(TB)): 3.89 µM
IC (TGI) (HL-60(TB)): 6.31 µM
CC50 (HL-60(TB)): ≥ 100 µM
GI50 (TK-10): 19.1 µM
IC50 (TK-10): 42.7 µM
IC (TGI) (TK-10): 51.3 µM
CC50 (TK-10): ≥ 100 µM
GI50 (SK-MEL-28): 2090 nM
IC50 (SK-MEL-28): 3.63 µM
IC (TGI) (SK-MEL-28): 4.9 µM
CC50 (SK-MEL-28): 16.6 µM
GI50 (PC-3): 3.09 µM
IC50 (PC-3): 4.27 µM
IC (TGI) (PC-3): 11 µM
CC50 (PC-3): 58.9 µM
GI50 (MOLT-4): 3.09 µM
IC50 (MOLT-4): 4.57 µM
IC (TGI) (MOLT-4): 8.91 µM
CC50 (MOLT-4): ≥ 100 µM
GI50 (IGROV1): 1860 nM
IC50 (IGROV1): 3.24 µM
IC (TGI) (IGROV1): 3.55 µM
CC50 (IGROV1): 6.76 µM
GI50 (RXF 393): 2.09 µM
IC50 (RXF 393): 5.37 µM
IC (TGI) (RXF 393): 5.01 µM
CC50 (RXF 393): 15.5 µM
GI50 (RPMI-8226): 23.4 µM
IC50 (RPMI-8226): 37.2 µM
IC (TGI) (RPMI-8226): 64.6 µM
CC50 (RPMI-8226): ≥ 100 µM
GI50 (MCF7): 8.13 µM
IC50 (MCF7): 12.9 µM
IC (TGI) (MCF7): 23.4 µM
CC50 (MCF7): 60.3 µM
GI50 (MDA-MB-435): 4.9 µM
IC50 (MDA-MB-435): 7.59 µM
IC (TGI) (MDA-MB-435): 17.8 µM
CC50 (MDA-MB-435): 44.7 µM
GI50 (NCI-H460): 3.98 µM
IC50 (NCI-H460): 4.68 µM
IC (TGI) (NCI-H460): 14.5 µM
CC50 (NCI-H460): 44.7 µM
GI50 (NCI-H522): 1820 nM
IC50 (NCI-H522): 3.47 µM
IC (TGI) (NCI-H522): 3.98 µM
CC50 (NCI-H522): 8.71 µM
GI50 (SW-620): 1.91 µM
IC50 (SW-620): 3.16 µM
IC (TGI) (SW-620): 3.8 µM
CC50 (SW-620): 7.76 µM

O=c1ccc(Cn2c(C(F)(F)F)cc3c(Cl)ncnc32)c[nH]1 [NUCC-0226698]
GI50 (SF-539): 17.4 µM
IC50 (SF-539): 32.4 µM
IC (TGI) (SF-539): 40.7 µM
CC50 (SF-539): 95.5 µM
GI50 (HS 578T): 8.71 µM
IC50 (HS 578T): 100 µM
IC (TGI) (HS 578T): 50.1 µM
CC50 (HS 578T): ≥ 100 µM
GI50 (SNB-19): 20.9 µM
IC50 (SNB-19): 39.8 µM
IC (TGI) (SNB-19): 58.9 µM
CC50 (SNB-19): ≥ 100 µM
GI50 (T-47D): 30.2 µM
IC50 (T-47D): 79.4 µM
IC (TGI) (T-47D): 100 µM
CC50 (T-47D): ≥ 100 µM
GI50 (U251): 22.4 µM
IC50 (U251): 33.1 µM
IC (TGI) (U251): 69.2 µM
CC50 (U251): ≥ 100 µM
GI50 (786-0): 43.7 µM
IC50 (786-0): 72.4 µM
IC (TGI) (786-0): 100 µM
CC50 (786-0): ≥ 100 µM
GI50 (ACHN): 22.4 µM
IC50 (ACHN): 33.9 µM
IC (TGI) (ACHN): 100 µM
CC50 (ACHN): ≥ 100 µM
GI50 (M14): 4.07 µM
IC50 (M14): 6.92 µM
IC (TGI) (M14): 21.9 µM
CC50 (M14): ≥ 100 µM
GI50 (MALME-3M): 15.8 µM
IC50 (MALME-3M): 36.3 µM
IC (TGI) (MALME-3M): 34.7 µM
CC50 (MALME-3M): 77.6 µM
GI50 (OVCAR-3): 14.8 µM
IC50 (OVCAR-3): 28.8 µM
IC (TGI) (OVCAR-3): 33.1 µM
CC50 (OVCAR-3): 72.4 µM
GI50 (A549/ATCC): 64.6 µM
IC50 (A549/ATCC): 100 µM
IC (TGI) (A549/ATCC): 100 µM
CC50 (A549/ATCC): ≥ 100 µM
GI50 (HL-60(TB)): 2090 nM
IC50 (HL-60(TB)): 3.63 µM
IC (TGI) (HL-60(TB)): 6.03 µM
CC50 (HL-60(TB)): ≥ 100 µM
GI50 (TK-10): ≥ 100 µM
IC50 (TK-10): 100 µM
IC (TGI) (TK-10): 100 µM
CC50 (TK-10): ≥ 100 µM
GI50 (SK-MEL-28): 3890 nM
IC50 (SK-MEL-28): 7.59 µM
IC (TGI) (SK-MEL-28): 18.6 µM
CC50 (SK-MEL-28): 66.1 µM
GI50 (PC-3): 17 µM
IC50 (PC-3): 28.2 µM
IC (TGI) (PC-3): 56.2 µM
CC50 (PC-3): ≥ 100 µM
GI50 (MOLT-4): 3.24 µM
IC50 (MOLT-4): 4.79 µM
IC (TGI) (MOLT-4): 17 µM
CC50 (MOLT-4): ≥ 100 µM
GI50 (IGROV1): 2290 nM
IC50 (IGROV1): 3.72 µM
IC (TGI) (IGROV1): 6.03 µM
CC50 (IGROV1): 26.3 µM
GI50 (RXF 393): 11.2 µM
IC50 (RXF 393): 35.5 µM
IC (TGI) (RXF 393): 32.4 µM
CC50 (RXF 393): 91.2 µM
GI50 (RPMI-8226): 22.9 µM
IC50 (RPMI-8226): 38 µM
IC (TGI) (RPMI-8226): 100 µM
CC50 (RPMI-8226): ≥ 100 µM
GI50 (MCF7): 20.9 µM
IC50 (MCF7): 32.4 µM
IC (TGI) (MCF7): 67.6 µM
CC50 (MCF7): ≥ 100 µM
GI50 (MDA-MB-435): 4.68 µM
IC50 (MDA-MB-435): 7.24 µM
IC (TGI) (MDA-MB-435): 20.4 µM
CC50 (MDA-MB-435): 74.1 µM
GI50 (NCI-H460): 12 µM
IC50 (NCI-H460): 16.6 µM
IC (TGI) (NCI-H460): 36.3 µM
CC50 (NCI-H460): ≥ 100 µM
GI50 (NCI-H522): 2040 nM
IC50 (NCI-H522): 3.98 µM
IC (TGI) (NCI-H522): 4.9 µM
CC50 (NCI-H522): ≥ 100 µM
GI50 (SW-620): 5.5 µM
IC50 (SW-620): 7.08 µM
IC (TGI) (SW-620): 26.3 µM
CC50 (SW-620): ≥ 100 µM
